Assay: xn = mol fraction of the nth substance listed
Details: 101 kPa

CN(CCO)CCO + CCCC[n+]1ccn(C)c1.F[B-](F)(F)F
viscosity [mPa·s]
Details | x2 = 0.1002 | x2 = 0.1974 | x2 = 0.3 | x2 = 0.4001 | x2 = 0.4998 | x2 = 0.6 | x2 = 0.6997 | x2 = 0.7998 | x2 = 0.8999
293.15 K | 89.3 | 82.9 | 78.9 | 75.2 | 73.6 | 74.2 | 79.1 | 87.9 | –
303.15 K | 49.9 | 46.2 | – | 42.4 | 42.4 | 43.8 | 47.5 | 53.1 | –
313.15 K | 30 | 28 | 26.4 | 26.1 | 26.4 | 27.7 | 30.4 | 34 | 41.2
323.15 K | 18.9 | – | 17.2 | 17.2 | 17.7 | – | 20.6 | 23.3 | 27.8
333.15 K | 12.75 | – | 11.84 | 12.03 | 12.44 | 13.35 | 14.8 | – | 19.8

Reference: a compilation of properties of binary mixtures (doi:10.1016/j.molliq.2017.08.088)
